Experimental data: patent US20240360139A1, “BLOOD BRAIN BARRIER PENETRATING SELECTIVE INHIBITORS OF ROCK2 PROTEIN KINASES AND USES THEREOF” (GENOSCO Inc., priority 2023, published 2024)

Assays:
[1] = target: T1, Recombinant ROCK1 (amino acids 1-477) (Homo sapiens, UniProt Q13464); assay: ROCK inhibition assay, LANCE Ultra TR-FRET (ROCK1); type: biochemical; details: 1 mM of ATP
T1 construct: Recombinant ROCK1 (amino acids 1-477)
Procedure: (§1) Kinase IC50 was determined through an in vitro assay based on LANCE Ultra TR-FRET (Time-Resolved Fluorescence Resonance Energy Transfer) homogeneous technologies method 5 (Perkin Elmer). Recombinant ROCK1 (amino acids 1-477) and ROCK2 (amino acids 5-554) proteins were purchased from Carna Biosciences and SignalChem. Compound activities were measured by Envision and IC50s were calculated. The assays were performed in white LUMITRAC™ 200 96 well half-area microplates from Greiner Bio-One. The kinase reaction buffer consisted of 50 mM HEPES pH 7.5, 1 mM EGTA, 10 mM MgCl2, 2 mM DTT and 0.01% 10 Tween-20. Kinases were incubated with 50 nM (ULight-CREBtide) substrate in the presence of 1 mM (ROCK1) or 1 mM (ROCK2) of ATP. The kinase reaction was carried out for 1 hour before addition of a stopping buffer to a final of 10 mM EDTA and 0.6 nM of LANCE Ultra Europium anti-phospho-CREB (Ser133) antibody (PerkinElmer TRF0200) in LANCE detection buffer. All assay incubations were performed at room temperature, and the microplates were sealed with polyester film during that time. The reaction was incubated for 1 hour, and the signal was read in Envision in TR-FRET mode (excitation at 320 nm and emission at 615/665 nm).
(§2) As used herein, a way to describe potency of inhibitory activity (nM) is a value of inhibitory activity at 50% (IC50).

[2] = target: T2, Recombinant ROCK2 (amino acids 5-554) (Homo sapiens, UniProt O75116); assay: ROCK inhibition assay, LANCE Ultra TR-FRET (ROCK2); type: biochemical; details: 1 mM of ATP
T2 construct: ROCK2 (amino acids 5-554)
T2 sequence (O75116 5-554): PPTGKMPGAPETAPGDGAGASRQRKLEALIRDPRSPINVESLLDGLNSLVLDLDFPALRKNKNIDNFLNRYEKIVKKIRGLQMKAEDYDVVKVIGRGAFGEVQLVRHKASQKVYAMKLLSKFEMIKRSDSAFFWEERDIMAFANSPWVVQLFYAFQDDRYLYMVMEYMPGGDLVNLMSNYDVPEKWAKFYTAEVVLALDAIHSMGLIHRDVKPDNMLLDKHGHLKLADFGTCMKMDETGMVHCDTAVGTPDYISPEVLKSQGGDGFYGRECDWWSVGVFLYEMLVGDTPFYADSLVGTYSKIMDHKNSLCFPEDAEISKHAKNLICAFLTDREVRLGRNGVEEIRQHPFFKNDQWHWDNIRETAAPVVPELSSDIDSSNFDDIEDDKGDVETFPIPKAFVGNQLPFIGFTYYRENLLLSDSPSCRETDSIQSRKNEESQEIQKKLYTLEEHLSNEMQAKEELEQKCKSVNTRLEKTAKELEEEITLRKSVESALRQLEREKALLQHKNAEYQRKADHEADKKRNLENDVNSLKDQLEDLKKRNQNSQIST
Procedure: as §1, §2

T1 sequence (Q13464 1-477): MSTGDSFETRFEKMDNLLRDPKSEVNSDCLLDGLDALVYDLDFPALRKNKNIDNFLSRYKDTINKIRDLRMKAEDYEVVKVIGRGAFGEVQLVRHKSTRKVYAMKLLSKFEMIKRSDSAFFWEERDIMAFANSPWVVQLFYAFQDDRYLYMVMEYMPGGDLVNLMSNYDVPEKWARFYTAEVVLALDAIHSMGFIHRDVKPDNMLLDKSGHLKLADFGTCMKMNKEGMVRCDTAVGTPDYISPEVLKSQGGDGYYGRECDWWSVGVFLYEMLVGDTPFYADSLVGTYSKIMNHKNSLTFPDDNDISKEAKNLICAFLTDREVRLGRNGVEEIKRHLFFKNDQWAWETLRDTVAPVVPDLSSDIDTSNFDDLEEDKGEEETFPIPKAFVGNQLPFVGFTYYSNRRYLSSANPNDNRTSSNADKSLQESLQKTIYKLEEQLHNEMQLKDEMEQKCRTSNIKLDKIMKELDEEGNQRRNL

Compound | IC50 [1] [nM] | IC50 [2] [nM]
CN(C)CCn1cc(C(=O)[C@H]2COc3ccc(Cl)cc3C2)c2ccc(-c3cn[nH]c3Cl)cc21 [Compound 5-35] | > 501 | 201 to 500
CN(C)CCn1cc(C(=O)[C@@H]2COc3ccc(Cl)cc3C2)c2ccc(-c3cn[nH]c3Cl)cc21 [Compound 5-36] | 201 to 500 | < 20
COc1[nH]ncc1-c1ccc2c(C(=O)C3COc4ccc(F)cc4C3)cn(CCN(C)C)c2c1 (stereo not shown) [Compound 5-37] | > 501 | < 20
COc1[nH]ncc1-c1ccc2c(C(=O)[C@@H]3COc4ccc(F)cc4C3)cn(CCN(C)C)c2c1 [Compound 5-38] | > 501 | < 20
COc1[nH]ncc1-c1ccc2c(C(=O)[C@H]3COc4ccc(F)cc4C3)cn(CCN(C)C)c2c1 [Compound 5-40] | > 501 | 201 to 500
COc1ccc2c(c1)CC(C(=O)c1cn(CCN(C)C)c3cc(-c4cn[nH]c4OC)ccc13)CO2 (stereo not shown) [Compound 5-41] | 201 to 500 | 21 to 200
COc1[nH]ncc1-c1ccc2c(C(=O)C3COc4ccc(Cl)cc4O3)cn(CCN(C)C)c2c1 (stereo not shown) [Compound 5-42] | > 501 | 201 to 500
CN(C)CCn1nc(C(=O)C2COc3ccccc3O2)c2ccc(-c3cn[nH]c3)cc21 (stereo not shown) [Compound 5-43] | > 501 | 21 to 200
CN(C)CCn1nc(C(=O)[C@@H]2COc3ccccc3O2)c2ccc(-c3cn[nH]c3)cc21 [Compound 5-44] | 201 to 500 | 21 to 200
COc1n[nH]cc1-c1ccc2c(C(=O)C3COc4ccc(Cl)cc4C3)nn(CCN(C)C)c2c1 (stereo not shown) [Compound 5-45] | > 501 | < 20
COc1n[nH]cc1-c1ccc2c(C(=O)[C@@H]3COc4ccc(Cl)cc4C3)nn(CCN(C)C)c2c1 [Compound 5-46] | 201 to 500 | < 20
COc1n[nH]cc1-c1ccc2c(C(=O)[C@H]3COc4ccc(Cl)cc4C3)nn(CCN(C)C)c2c1 [Compound 5-47] | > 501 | 21 to 200
CN(C)CCn1nc(C(=O)C2COc3ccc(Cl)cc3C2)c2ccc(-c3c[nH]nc3F)cc21 (stereo not shown) [Compound 5-48] | > 501 | < 20
COc1ccc2c(c1)CC(C(=O)c1nn(CCN(C)C)c3cc(-c4c[nH]nc4OC)ccc13)CO2 (stereo not shown) [Compound 5-49] | 21 to 200 | < 20
COc1ccc2c(c1)CC(C(=O)c1nn(CCN(C)C)c3cc(-c4c[nH]nc4Cl)ccc13)CO2 (stereo not shown) [Compound 5-50] | 21 to 200 | < 20
COc1n[nH]cc1-c1ccc2c(C(=O)C3COc4ccc(F)cc4C3)nn(CCN(C)C)c2c1 (stereo not shown) [Compound 5-51] | > 501 | 21 to 200
CN(C)CCn1nc(C(=O)C2COc3ccc(F)cc3C2)c2ccc(-c3c[nH]nc3Cl)cc21 (stereo not shown) [Compound 5-52] | 201 to 500 | < 20
CN(C)CCn1nc(C(=O)[C@@H]2COc3ccc(F)cc3C2)c2ccc(-c3c[nH]nc3Cl)cc21 [Compound 5-53] | 201 to 500 | < 20
CN(C)CCn1nc(C(=O)C2COc3ccccc3C2)c2ccc(-c3c[nH]nc3C(F)(F)F)cc21 (stereo not shown) [Compound 5-54] | > 501 | 201 to 500
CN(C)CCn1nc(C(=O)C2COc3ccc(F)cc3C2)c2ccc(-c3c[nH]nc3F)cc21 (stereo not shown) [Compound 5-55] | 201 to 500 | < 20
CN1CC[C@H]1Cn1nc(C(=O)[C@@H]2COc3ccc(F)cc3C2)c2ccc(-c3c[nH]nc3F)cc21 [Compound 5-57] | 201 to 500 | < 20
COc1n[nH]cc1-c1ccc2c(C(=O)C3COc4ccc(Cl)cc4O3)nn(CCN(C)C)c2c1 (stereo not shown) [Compound 5-59] | > 501 | 21 to 200
CN(C)CCn1nc(C(=O)C2COc3ccc(Cl)cc3O2)c2ccc(-c3c[nH]nc3F)cc21 (stereo not shown) [Compound 5-60] | > 501 | 21 to 200
CN(C)CCn1nc(C(=O)C2COc3ccc(Cl)cc3O2)c2ccc(-c3c[nH]nc3Cl)cc21 (stereo not shown) [Compound 5-61] | > 501 | 21 to 200
COc1n[nH]cc1-c1ccc2c(C(=O)C3CCOc4ccc(F)cc4C3)nn(CCN(C)C)c2c1 (stereo not shown) [Compound 5-62] | > 501 | > 501
CN(C)CCn1nc(C(=O)C2CCOc3ccc(F)cc3C2)c2ccc(-c3c[nH]nc3Cl)cc21 (stereo not shown) [Compound 5-63] | > 501 | > 501
